Experimental data published in patent US11440870B2, “Cannabidiolic acid esters compositions and uses thereof” (Yissum Research Development Company of the Hebrew …, priority 2017, dated 2022).

Assays:
human 5-HT1A receptors = target: T1, human 5-HT1A receptors (Homo sapiens, UniProt P08908); assay: [35S]-GTPγS binding assay: enhancement of 8-OH-DPAT-induced stimulation, human 5-HT1A CHO cell membranes; assay type: biochemical; conditions: n=6
T1 construct: expressed in transfected cells; membranes used
T1 sequence (P08908 1-422): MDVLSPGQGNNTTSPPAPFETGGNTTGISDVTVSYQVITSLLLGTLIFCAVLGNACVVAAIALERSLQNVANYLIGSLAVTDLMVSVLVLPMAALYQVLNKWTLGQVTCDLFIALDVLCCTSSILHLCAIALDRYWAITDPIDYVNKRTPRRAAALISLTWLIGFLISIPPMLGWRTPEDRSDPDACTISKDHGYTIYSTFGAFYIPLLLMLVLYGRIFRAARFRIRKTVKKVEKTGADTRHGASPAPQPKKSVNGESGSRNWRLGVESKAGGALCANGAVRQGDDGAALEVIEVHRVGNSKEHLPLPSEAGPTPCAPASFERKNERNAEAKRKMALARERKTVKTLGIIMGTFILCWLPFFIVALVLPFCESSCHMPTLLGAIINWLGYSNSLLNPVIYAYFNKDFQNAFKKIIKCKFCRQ
Procedure: CHO cells stably transfected with cDNA encoding human 5-HT1A receptors (a generous gift from Dr Keith Parker) were maintained at 37° C. and 5% CO2 in Gibco™ Ham's F-12 Nutrient Mix supplied by Fisher Scientific UK Ltd that was supplemented both with 2 mM L-glutamine, 10% FBS and 0.6% penicillin-streptomycin, all also supplied by Fisher Scientific UK Ltd, and with the disulphate salt of G418 [(2R,3S,4R,5R,6S)-5-amino-6-{[(1R,2S,3S,4R,6S)-4,6-diamino-3-{[(2R,3R,4R,5R)-3,5-dihy-droxy-5-methyl-4-(methylamino)oxan-2-yl]oxy}2-hydroxy cyclohexyl]oxy}-2-[(1R)-1-hydroxyethyl]oxane-3,4-diol; […]] supplied by Sigma-Aldrich UK.
[^35S]-GTPγS binding assay. Each assay was carried out with human 5-HT1A CHO cell membranes (50 μg protein per well), GTPγS-binding buffer (50 mM Tris-HCl; 50 mM Tris-Base; 5 mM MgCl2; 1 mM EDTA; 100 mM NaCl; 1 mM DTT and 0.1% BSA), 0.1 nM [^35S]-GTPγS and 30 μM GDP, in a final volume of 500 μL (Cascio et al., 2010). Binding was initiated by the addition of [^35S]-GTPγS to the wells. Non-specific binding was measured in the presence of 30 μM GTPγS. Assays were performed at 30° C. for 60 min (Cascio et al., 2010). The reaction was terminated by a rapid vacuum filtration method using Tris-binding buffer as described previously by Cascio et al. (2010), and the radioactivity was quantified by liquid scintillation spectrometry. In all the [^35S]-GTPγS-binding assays, 0.1 nM [^35S]-GTPγS was used, […] and a protein concentration of […]. CBDA, HU-580, 8-OH-DPAT and WAY100635 were stored at −20° C. as 10 mM stock solutions dissolved in DMSO.
Net agonist-stimulated [^35S]-GTPγS binding values were calculated by subtracting basal binding values (obtained in the absence of agonist) from agonist-stimulated values (obtained in the presence of agonist) (Cascio et al., 2010). Values are expressed as means and variability as SEM or as 95% confidence limits. Mean EC50 and mean maximal effect (Emax) values, and SEM or 95% confidence limits of these values, have been calculated by nonlinear regression analysis using the equation for a sigmoid concentration-response curve (GraphPad Prism). P values<0.05 were considered significant. The data and statistical analysis comply with the recommendations on experimental design and analysis in pharmacology (Curtis et al., 2015).

[1] = Stability on storage at 4° C.; conditions: stored at 4° C. (21 days for the comparison)
[2] = test system: LiCl-induced conditioned gaping (acute nausea) in rats; conditions: i.p.; literature (Bolognini et al., 2013; Rock et al.); cited from earlier work
[3] = test system: anxiety-like responding in rats; conditions: i.p.; literature (Rock et al., 2017); cited from earlier work

SMILES	Effect of the compound by itself on [35S]-GTPγS binding (agonist or inverse agonist behaviour) (human 5-HT1A receptors; administered by itself at 0.01, 0.1, 1, 10 or 100 nM, data not shown)	Emax (human 5-HT1A receptors; pretreatment 0.001 nM HU-580 (FIG. 2A))	Emax (human 5-HT1A receptors; pretreatment 0.001 nM HU-580 (FIG. 2B), * P<0.05 vs vehicle)	Emax (human 5-HT1A receptors; pretreatment 0.1 nM HU-580 (FIG. 2C), * P<0.05 vs vehicle)	Emax (human 5-HT1A receptors; pretreatment 1.0 nM HU-580 (FIG. 2D), * P<0.05 vs vehicle)	Emax (human 5-HT1A receptors; pretreatment 10 nM HU-580 (FIG. 2E), * P<0.05 vs vehicle)	Emax (human 5-HT1A receptors; pretreatment 100 nM HU-580 (FIG. 2F))	Stability when stored [1]	Emax (human 5-HT1A receptors; pretreatment 0.01 nM CBDA (FIG. 1A))	Emax (human 5-HT1A receptors; pretreatment 0.1 nM CBDA (FIG. 1B), * P<0.05 vs vehicle)	Emax (human 5-HT1A receptors; pretreatment 1.0 nM CBDA (FIG. 1C), * P<0.05 vs vehicle)	Emax (human 5-HT1A receptors; pretreatment 10 nM CBDA (FIG. 1D), * P<0.05 vs vehicle)	Emax (human 5-HT1A receptors; pretreatment 100 nM CBDA (FIG. 1E))	Dose as low as which anti-nausea effects are induced (vomiting in Suncus murinus, conditioned gaping in rats) [2]	Doses as low as which anxiolytic-like effects are produced under conditions of high stress [3]
C=C(C)[C@@H]1CCC(C)=C[C@H]1c1c(O)cc(CCCCC)c(C(=O)OC)c1O [HU-580, Cannabidiolic Acid Methyl Ester]	did not behave as a 5-HT1A receptor agonist or inverse agonist	99.8%	127%	125%	140%	139%	92%	more stable than CBDA							
C=C(C)[C@@H]1CCC(C)=C[C@H]1c1c(O)cc(CCCCC)c(C(=O)O)c1O [CBDA, Cannabidiolic acid]									95.6%	115%	167%	144%	109%	1 µg/kg	0.1 µg/kg
